Source: patent US6545007B2, “Methods for inhibiting the transmission of HIV using topically applied substituted 6-benzyl-4-oxopyrimidines” (Idenix (Cayman) Limited, priority 2000, dated 2003)
Read-outs that look alike come from different tables or passages of the source.

Legend:
mock-infected MT-4 cells = experiment: Cytotoxicity: viability of mock-infected cells by the MTT method; assay type: cell-based, human
Description: (§1) Cells and viruses. MT-4, C8166,H9/IIIB and CEM cells were grown at 37° C. in a 5% CO2 atmosphere in RPMI 1640 medium, supplemented with 10% fetal calf serum (FCS), 100 IU/mL penicillin and 100 μg/mL streptomycin. Cell cultures were checked periodically for the absence of mycoplasma contamination with a MycoTect Kit (Gibco). Human immunodeficiency virus type-I (HIV-1, IIIB strain) was obtained from supernatants of persistently infected H9/IIIB cells.
(§2) Anti-HIV Assays. Activity of the compounds against HIV-1 and HIV-2 multiplication in acutely infected cells was based on the inhibition of virus-induced cytopathicity in MT-4 and C8166 cells, respectively. Briefly, 50 μL of culture medium containing 1×10^4 cells were added to each well of flat-bottom microtiter trays containing 50 μl of culture medium with or without various concentrations of the test compounds. Then 20 μL of an HIV suspension containing 100 CCID50 were added. After a 4-day incubation at 37° C., the number of viable cells was determined by the 3-(4,5-dimethylthiazol-[…])-2,5-diphenyltetrazolium bromide (MTT) method. Cytotoxicity of the compounds was evaluated in parallel with their antiviral activity. It was based on the viability of mock-infected cells, as monitored by the MTT method.

HIV-1 (IIIB strain) = assay type: cell-based; conditions: for EC50: anti-HIV-1 activity; for SI: selectivity index (CC50/EC50)
Description: Compounds. Compounds were solubilized in DMSO at 200 mM and then diluted into culture medium.
as §1
HIV Titration. Titration of HIV was performed in C8166 cells by the standard limiting dilution method (dilution 1:2, four replica wells per dilution) in 96-well plates. The infectious virus titre was determined by light microscope scoring of cytopathicity after 4 days of incubation and the virus titres were expressed as CCID50/mL.
as §2

[1] = acutely infected MT-4 cells, MTT

SMILES | EC50 (HIV-1 (IIIB strain); HIV-1-infected MT-4 cells) [µM] | CC50 (mock-infected MT-4 cells; MTT) [µM] | EC50 (HIV-1 (IIIB strain); [1]) [µM] | CC50 (mock-infected MT-4 cells) [µM] | SI (HIV-1 (IIIB strain))
Cc1c(C(C)c2c(F)cccc2F)nc(SC2CCCC2)[nH]c1=O (single isomer, unassigned) [MC 1047+] |  | > 200 | 0.002 |  | 
Cc1c(C(C)c2c(F)cccc2F)nc(SC2CCCC2)[nH]c1=O (single isomer, unassigned) [MC 1047−] |  | > 200 | 0.7 |  | 
Cc1c(C(C)c2c(F)cccc2F)nc(NC2CCCC2)[nH]c1=O (centres unmarked) [MC1129, 2-Cyclopentylamino-6-{1-(2,6-difluorophenyl)ethyl}-3,4-dihydro-5-methylpyrimidin-4-(3H)-one] | 0.02 |  |  | 90 | 4,500
CC1CCC(C)C(Oc2nc(Cc3ccccc3)cc(=O)[nH]2)C1 (centres unmarked) [MC 507] | 3.5 |  |  | 143 | 40
CC1CCC(Oc2nc(Cc3ccccc3)cc(=O)[nH]2)CC1C (centres unmarked) [MC 508] | 6.4 |  |  | 58 | 9
CC1CC(C)CC(Oc2nc(Cc3ccccc3)cc(=O)[nH]2)C1 (centres unmarked) [MC 512] | 30 |  |  | > 200 | >6.7
Cc1c(Cc2ccccc2)nc(OC2CC(C)CCC2C)[nH]c1=O (centres unmarked) [MC 531] | 3.5 |  |  | 138 | 39
CCC(C)Sc1nc(C(c2ccccc2)c2ccccc2)cc(=O)[nH]1 (centres unmarked) [MC 796] | > 61 |  |  | 61 | 
CCc1c(Cc2ccccc2)nc(SC(C)CC)[nH]c1=O (centres unmarked) [MC 798] | 1 |  |  | > 200 | >200
CCc1c(Cc2cccc3ccccc23)nc(SC(C)CC)[nH]c1=O (centres unmarked) [MC 804] | 5.3 |  |  | > 200 | >34
CCC(C)Sc1nc(Cc2ccccc2C)cc(=O)[nH]1 (centres unmarked) [MC 806] | 1.8 |  |  | > 200 | >111
CCC(C)Sc1nc(Cc2ccc(C)cc2)cc(=O)[nH]1 (centres unmarked) [MC 809] | 0.6 |  |  | 200 | 333.3
CCC(C)Sc1nc(Cc2c(Cl)cccc2Cl)cc(=O)[nH]1 (centres unmarked) [MC 815] | 0.14 |  |  | > 200 | >1,428
CCC(C)Sc1nc(Cc2ccccc2[N+](=O)[O-])cc(=O)[nH]1 (centres unmarked) [MC 817] | 0.25 |  |  | > 200 | >800
CCC(C)Sc1nc(Cc2ccccc2N)cc(=O)[nH]1 (centres unmarked) [MC 825] | 21.2 |  |  | > 200 | >9
CCCCc1c(Cc2ccccc2)nc(SC(C)CC)[nH]c1=O (centres unmarked) [MC 834] | > 200 |  |  | > 200 | 
Cc1ccccc1Cc1cc(=O)[nH]c(SC2CCCC2)n1 [MC 842] | 3.4 |  |  | > 200 | >59
O=c1cc(Cc2ccccc2)nc(SCOCc2ccccc2)[nH]1 [MC 843] | 45 |  |  | > 200 | >4
CCC(C)Sc1nc(Cc2ccccc2C)c(C)c(=O)[nH]1 (centres unmarked) [MC 844] | 1.7 |  |  | > 200 | >118

SMILES | EC50 (HIV-1 (IIIB strain); HIV-1-infected MT-4 cells) [µM] | CC50 (mock-infected MT-4 cells; MTT) [µM] | EC50 (HIV-1 (IIIB strain); [1]) [µM] | CC50 (mock-infected MT-4 cells) [µM] | SI (HIV-1 (IIIB strain))
CCC(C)Sc1nc(Cc2ccc(C)cc2)c(C)c(=O)[nH]1 (centres unmarked) [MC 845] | 0.8 |  |  | 26 | 32
CCC(C)Sc1nc(Cc2c(F)cccc2F)cc(=O)[nH]1 (centres unmarked) [MC 848] | 0.04 |  |  | 200 | 5,000
CCC(C)Sc1nc(Cc2c(Cl)cccc2Cl)c(C)c(=O)[nH]1 (centres unmarked) [MC 850] | 0.05 |  |  | > 200 | >4,000
C=CCc1c(Cc2ccccc2)nc(SC(C)CC)[nH]c1=O (centres unmarked) [MC 852] | 3 |  |  | > 200 | >67
CCCc1c(Cc2ccccc2)nc(SC(C)CC)[nH]c1=O (centres unmarked) [MC 856] | 12 |  |  | 190 | 16
CCC(C)Sc1nc(Cc2ccc(Cl)cc2)cc(=O)[nH]1 (centres unmarked) [MC 859] | 5 |  |  | 120 | 24
CC(C)Sc1nc(Cc2c(F)cccc2F)cc(=O)[nH]1 [MC 860] | 0.2 |  |  | > 200 | >1,000
CCC(C)Sc1nc(Cc2ccc([N+](=O)[O-])cc2)cc(=O)[nH]1 (centres unmarked) [MC 863] | 1.5 |  |  | 151 | 101
CC(C)CSc1nc(Cc2c(F)cccc2F)cc(=O)[nH]1 [MC 866] | 0.14 |  |  | 182 | 1,300
O=c1cc(Cc2c(F)cccc2F)nc(SC2CCCC2)[nH]1 [MC 867] | 0.08 |  |  | > 200 | >2,500
CCC(C)Sc1nc(Cc2ccccc2C(F)(F)F)cc(=O)[nH]1 (centres unmarked) [MC 868] | 32 |  |  | > 200 | 6.2
CSc1nc(Cc2c(F)cccc2F)c(C)c(=O)[nH]1 [MC 869] | 0.19 |  |  | 200 | 1,053
O=c1cc(Cc2c(F)cccc2F)nc(SC2CCCCC2)[nH]1 [MC 870] | 0.08 |  |  | 200 | 2,500
CSc1nc(Cc2c(F)cccc2F)cc(=O)[nH]1 [MC 871] | 0.81 |  |  | 200 | 247
CCCCSc1nc(Cc2c(F)cccc2F)cc(=O)[nH]1 [MC 872] | 0.18 |  |  | 162 | 900
CSc1nc(Cc2c(Cl)cccc2Cl)cc(=O)[nH]1 [MC 877] | 3.2 |  |  | > 200 | >62
CC(C)Sc1nc(Cc2c(Cl)cccc2Cl)cc(=O)[nH]1 [MC 878] | 1.9 |  |  | > 200 | >105
CCC(C)Sc1nc(Cc2ccccc2F)cc(=O)[nH]1 (centres unmarked) [MC 880] | 0.26 |  |  | 200 | 769
Cc1c(Cc2c(F)cccc2F)nc(SC(C)C)[nH]c1=O [MC 881] | 0.05 |  |  | > 200 | >4,000

Continued, in another order:

EC50 (HIV-1 (IIIB strain); HIV-1-infected MT-4 cells) [µM] | SMILES | CC50 (mock-infected MT-4 cells; MTT) [µM] | EC50 (HIV-1 (IIIB strain); [1]) [µM] | CC50 (mock-infected MT-4 cells) [µM] | SI (HIV-1 (IIIB strain))
0.7 | CCC(C)Sc1nc(Cc2cccc(F)c2)cc(=O)[nH]1 (centres unmarked) [MC 884] |  |  | > 200 | >286
0.45 | CC(C)CSc1nc(Cc2c(Cl)cccc2Cl)cc(=O)[nH]1 [MC 885] |  |  | > 200 | >444
0.44 | CCCCSc1nc(Cc2c(Cl)cccc2Cl)cc(=O)[nH]1 [MC 886] |  |  | > 200 | >454
0.4 | O=c1cc(Cc2c(Cl)cccc2Cl)nc(SC2CCCC2)[nH]1 [MC 888] |  |  | > 200 | >500
8.7 | CCC(C)Sc1nc(Cc2ccc(F)cc2)cc(=O)[nH]1 (centres unmarked) [MC 889] |  |  | > 200 | 23
0.9 | CC(C)Sc1nc(C(C)c2ccccc2)cc(=O)[nH]1 (centres unmarked) [MC 890] |  |  | > 200 | >222
0.6 | O=c1cc(Cc2c(Cl)cccc2Cl)nc(SC2CCCCC2)[nH]1 [MC 891] |  |  | > 200 | >333
0.6 | CC(c1ccccc1)c1cc(=O)[nH]c(SC2CCCC2)n1 (centres unmarked) [MC 892] |  |  | 159 | 333
0.4 | CCC(C)Sc1nc(Cc2cccc([N+](=O)[O-])c2)cc(=O)[nH]1 (centres unmarked) [MC 897] |  |  | 157 | 392
0.6 | CC(c1ccccc1)c1cc(=O)[nH]c(SC2CCCCC2)n1 (centres unmarked) [MC 898] |  |  | 149 | 248
0.8 | CCC(c1ccccc1)c1cc(=O)[nH]c(SC(C)C)n1 (centres unmarked) [MC 899] |  |  | 200 | 250
1 | CCC(c1ccccc1)c1cc(=O)[nH]c(SC2CCCC2)n1 (centres unmarked) [MC 900] |  |  | > 200 | >200
1.3 | CCC(c1ccccc1)c1cc(=O)[nH]c(SC2CCCCC2)n1 (centres unmarked) [MC 903] |  |  | > 200 | >154
0.08 | CCCCSc1nc(Cc2c(F)cccc2F)c(C)c(=O)[nH]1 [MC 905] |  |  | > 200 | >2,500
0.27 | CCC(C)Sc1nc(Cc2ccccc2Cl)c(C)c(=O)[nH]1 (centres unmarked) [MC 909] |  |  | > 200 | >741
0.96 | CCC(C)Sc1nc(Cc2cccc(Cl)c2)c(C)c(=O)[nH]1 (centres unmarked) [MC 910] |  |  | > 200 | >208
9.5 | CCC(C)Sc1nc(Cc2ccc(Cl)cc2)c(C)c(=O)[nH]1 (centres unmarked) [MC 911] |  |  | > 200 | 20
3.2 | CSc1nc(Cc2c(Cl)cccc2Cl)c(C)c(=O)[nH]1 [MC 912] |  |  | > 200 | >62
0.41 | CCC(C)Sc1nc(Cc2ccccc2F)c(C)c(=O)[nH]1 (centres unmarked) [MC 913] |  |  | 140 | 341
1.3 | Cc1c(Cc2c(Cl)cccc2Cl)nc(SC(C)C)[nH]c1=O [MC 914] |  |  | > 200 | >154
1.8 | Cc1c(Cc2c(Cl)cccc2Cl)nc(SC2CCCC2)[nH]c1=O [MC 915] |  |  | > 200 | >111
1.2 | Cc1c(Cc2c(Cl)cccc2Cl)nc(SCC(C)C)[nH]c1=O [MC 916] |  |  | > 200 | >166
